Experimental data published in patent US10576052B2, “Composition preventing bacterial inflammation in monogastric animals” (PERSTORP AB, priority 2015, dated 2020).

Key:
Salmonella = test: In vitro Salmonella growth inhibition; format: cell-based
HilA expression = test: Invasive gene expression (HilA expression) in Salmonella; format: cell-based
[1] = test system: GLP-2 positive cells in the small intestine (jejunum and ileum); test: Quantification of GLP-2 positive cells in villi and crypts of jejunum and ileum of broiler chickens fed supplemented feed; format: in vivo, Ross broiler chickens; conditions: 5.6 g/kg feed from day of hatch, sampled at age of ten days
From the text: […] one-day-old Ross broiler chickens were obtained from a local hatchery. The animals were divided at random in two equal groups: one experimental groups, and one control group. The groups were housed on wood shavings in separate containers of 0.96 m^2. Commercial feed and drinking water was provided ad libitum, From the day of hatch, the experimental group received feed supplemented with glyceryl monovalerate (MV; Perstorp, 5.6 g/kg feed), according to the suppliers recommendations (in-feed supplementation). The control group, received unsupplemented feed. At the age of ten days, the animals were killed by injecting an intravenous overdose of pentobarbital and sampling was performed. Samples (1 cm in length) of jejunum and ileumn were submerged in 4% phosphate buffered (wt/vol) formaldehyde within 15 minutes after euthanasia. […] For each animal, the area of 10 randomly chosen villi and 30 randomly chosen crypts was measured for jejunum and ileum using LAS V3.8 software (Leica Microsystems GmbH, Wetzlar, Germany). In total 80 areas per bird were analysed. For every defined area, the number of cells was counted at magnification ×400. Only cells with a detectable nucleus were counted. The average number of cells per area villus or crypt (cells/mm^2) was calculated for each bird. […]

CCCCC(=O)OCC(O)CO (stereo not shown) [glyceryl monovalerate]
inhibition of Salmonella growth (Salmonella): effective inhibitor
invasive gene expression (HilA expression) in Salmonella (HilA expression): down-regulated
average number of GLP-2 positive cells in the villi of jejunum and ileum, experimental group vs control group ([1]; P≤0.001, FIG. 1): statistically higher
average numbers of GLP2-positive cells in the crypts of jejunum and ileum, experimental group vs control group ([1]; P≤0.05, FIG. 2): statistically higher
